In patent publication US7510852B2, “Biosynthetic genes and host cells for the synthesis of polyketide antibiotics and method of use” (priority 2002, dated 2009):

Experiments:
[1] = system: prokaryotic DNA replication; conditions: Birch and Patil, 1985a; cited from earlier work
[2] = system: chloroplast DNA replication; conditions: Birch and Patil, 1983-1987; cited from earlier work
[3] = system: proteases; conditions: Birch and Patil, 1985a; cited from earlier work
[4] = system: gram-positive and gram-negative bacteria; conditions: range of gram-positive and gram-negative bacteria; Birch and Patil, 1985a; cited from earlier work
[5] = system: E. coli DH5αKT clones that spontaneously grew within the growth inhibition zone of a pALB571-pOp3-4/XALB2-3 exconjugant; assay: Cross-resistance test: albicidin production assay with X. albilineans Xa23R1; type: cell-based, Escherichia coli; conditions: albicidin produced by X. albilineans Xa23R1; two clones as tester strains
Description: Assay of albicidin production. Albicidin production was tested by a microbiological assay as described previously (Rott et al., 1996). Rifampicin and kanamycin exconjugants were spotted with sterile toothpicks (2-mm-diameter spots) onto plates of SPA medium (2% sucrose, 0.5% peptone, 1.5% agar) and incubated at 28° C. for 2-5 days. The plates were then overlaid with a mixture of E. coli DH5α (10^7 cells in 2 ml of distilled water) plus 2 ml of molten 1.5% (wt/vol) Noble agar (Difco) at ca. 65° C. and examined for inhibition zones after 24 h at 37 C.
Two E. coli DH5αKT clones, that spontaneously grew within the growth inhibition zone of a X. axonopodis pv. vesicatoria pALB571-pOp3-4/XALB2-3 exconjugant on SPA+tetracycline medium, were isolated and tested for resistance to albicidin. […] Comparison of chemical characteristics of the two molecules will, however, be necessary to confirm that the two molecules are identical.

In the case of albicidin, the “effect on prokaryotic DNA replication” value [1] is given as “inhibits prokaryotic DNA replication”, the “effect on chloroplast DNA replication” value [2] is given as “inhibits chloroplast DNA replication” and the sensitivity to proteases [3] is given as “insensitive to proteases”. The bactericidal activity [4] was “bactericidal” and the “growth inhibition of clones resistant to the albicidin-like product” value [5] was “No growth inhibition”.
